# Data from ChEMBL document CHEMBL1649230, “Aryl rhodanines specifically inhibit staphylococcal and enterococcal biofilm formation” (Antimicrob Agents Chemother, 2009).
# Activity calls are given as the source filed them. The rule behind the calls is not given here.
# Tested on: Staphylococcus aureus
# Assay: Antimicrobial activity against Staphylococcus aureus ATCC 35556 assessed as inhibition of primary adhesion of bacterial biofilm to silicone disk at MBIC after 30 mins by fluorescence emission using BaclLight Live Dead stain
smiles,measurement,value
CCOc1cc(/C=C2\SC(=S)N(c3ccc(F)cc3)C2=O)ccc1O,inhibition,Active
